The record followed here is patent publication US20230373985A1 (Origenis Gmbh, priority 2020, published 2023).

Structures are written as SMILES.

The target in assay [1] is T1, wt human TYK2, catalytic site (Homo sapiens, UniProt P29597).
T1 construct: wt human TYK2, catalytic site; purchased SignalChem
T1 sequence (P29597 897-1176 limits assumed): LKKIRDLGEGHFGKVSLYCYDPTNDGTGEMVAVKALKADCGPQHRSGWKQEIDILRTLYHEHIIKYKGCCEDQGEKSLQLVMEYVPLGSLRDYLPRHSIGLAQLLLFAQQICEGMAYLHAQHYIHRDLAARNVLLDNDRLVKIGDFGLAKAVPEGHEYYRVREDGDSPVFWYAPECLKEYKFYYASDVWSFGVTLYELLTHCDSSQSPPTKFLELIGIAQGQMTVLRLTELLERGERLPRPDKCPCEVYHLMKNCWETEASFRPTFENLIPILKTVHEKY
In words: HTRF KinEASE assay, TYK2. Particulars: 1 μM ATP; read-out: IC50, Activity Toward TYK2. The class given is biochemical. In a few lines: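 Kinase reaction run at room temperature for at least 30 min: 2 nM TYK2 with 1 μM ATP, or 1 nM JAK2 with 100 μM ATP, each with 1 μM biotin-TK substrate. Phosphorylation detected by HTRF (60 min antibody/XL665) and evaluated from emission ratios.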
A general note: TR-FRET usually uses a lanthanide donor and a delayed reading to cut background.

Assay [2] concerns the target T2, wt human LRRK2, catalytic site (Homo sapiens, UniProt Q5S007).
T2 construct: 5 nM wt human LRRK2, catalytic site; purchased ThermoFisher
Nature of the assay: TR-FRET LanthaScreen Eu Kinase Binding Assay, LRRK2 wt. Particulars: one range stated for wt and G2019, read-out: IC50, Activity Toward LRRK2(Wt). In a few lines:
(§1)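 Each kinase was incubated with compound, 2 nM europium-labelled antibody and Tracer 236 for one hour at room temperature before plate reading. LRRK2 wt and G2019S used 5 nM protein and 10 nM tracer; NUAK1 used 8 nM protein and 5 nM tracer.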

In assay [3] the target is T3, G2019S human LRRK2, catalytic site (Homo sapiens, UniProt Q5S007, G2019S).
T3 construct: G2019S human LRRK2, catalytic site; purchased ThermoFisher
Nature of the assay: TR-FRET LanthaScreen Eu Kinase Binding Assay, LRRK2 G2019S. Particulars: LRRK2(G2019); one range stated for wt and G2019; read-out: IC50, Activity Toward LRRK2(G2019). In a few lines: as §1

Assay [4] addresses T4, wt human JAK1, catalytic site (Homo sapiens, UniProt P23458).
T4 construct: wt human JAK1, catalytic site; purchased ThermoFisher
Nature of the assay: HTRF KinEASE assay, JAK1. It counts as biochemical. Particulars: 2.5 μM ATP; read-out: IC50, Activity Toward JAK1. The gist of the method:
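Compounds in DMSO dilution were mixed with kinase, biotin-TK substrate and ATP and reacted for ≥30 min at room temperature. Detection reagents (antibody, streptavidin-XL665) were read 60 min later as HTRF, with emission ratios analysed per KinEASE protocol.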

T2 sequence (Q5S007 970-2527 limits assumed): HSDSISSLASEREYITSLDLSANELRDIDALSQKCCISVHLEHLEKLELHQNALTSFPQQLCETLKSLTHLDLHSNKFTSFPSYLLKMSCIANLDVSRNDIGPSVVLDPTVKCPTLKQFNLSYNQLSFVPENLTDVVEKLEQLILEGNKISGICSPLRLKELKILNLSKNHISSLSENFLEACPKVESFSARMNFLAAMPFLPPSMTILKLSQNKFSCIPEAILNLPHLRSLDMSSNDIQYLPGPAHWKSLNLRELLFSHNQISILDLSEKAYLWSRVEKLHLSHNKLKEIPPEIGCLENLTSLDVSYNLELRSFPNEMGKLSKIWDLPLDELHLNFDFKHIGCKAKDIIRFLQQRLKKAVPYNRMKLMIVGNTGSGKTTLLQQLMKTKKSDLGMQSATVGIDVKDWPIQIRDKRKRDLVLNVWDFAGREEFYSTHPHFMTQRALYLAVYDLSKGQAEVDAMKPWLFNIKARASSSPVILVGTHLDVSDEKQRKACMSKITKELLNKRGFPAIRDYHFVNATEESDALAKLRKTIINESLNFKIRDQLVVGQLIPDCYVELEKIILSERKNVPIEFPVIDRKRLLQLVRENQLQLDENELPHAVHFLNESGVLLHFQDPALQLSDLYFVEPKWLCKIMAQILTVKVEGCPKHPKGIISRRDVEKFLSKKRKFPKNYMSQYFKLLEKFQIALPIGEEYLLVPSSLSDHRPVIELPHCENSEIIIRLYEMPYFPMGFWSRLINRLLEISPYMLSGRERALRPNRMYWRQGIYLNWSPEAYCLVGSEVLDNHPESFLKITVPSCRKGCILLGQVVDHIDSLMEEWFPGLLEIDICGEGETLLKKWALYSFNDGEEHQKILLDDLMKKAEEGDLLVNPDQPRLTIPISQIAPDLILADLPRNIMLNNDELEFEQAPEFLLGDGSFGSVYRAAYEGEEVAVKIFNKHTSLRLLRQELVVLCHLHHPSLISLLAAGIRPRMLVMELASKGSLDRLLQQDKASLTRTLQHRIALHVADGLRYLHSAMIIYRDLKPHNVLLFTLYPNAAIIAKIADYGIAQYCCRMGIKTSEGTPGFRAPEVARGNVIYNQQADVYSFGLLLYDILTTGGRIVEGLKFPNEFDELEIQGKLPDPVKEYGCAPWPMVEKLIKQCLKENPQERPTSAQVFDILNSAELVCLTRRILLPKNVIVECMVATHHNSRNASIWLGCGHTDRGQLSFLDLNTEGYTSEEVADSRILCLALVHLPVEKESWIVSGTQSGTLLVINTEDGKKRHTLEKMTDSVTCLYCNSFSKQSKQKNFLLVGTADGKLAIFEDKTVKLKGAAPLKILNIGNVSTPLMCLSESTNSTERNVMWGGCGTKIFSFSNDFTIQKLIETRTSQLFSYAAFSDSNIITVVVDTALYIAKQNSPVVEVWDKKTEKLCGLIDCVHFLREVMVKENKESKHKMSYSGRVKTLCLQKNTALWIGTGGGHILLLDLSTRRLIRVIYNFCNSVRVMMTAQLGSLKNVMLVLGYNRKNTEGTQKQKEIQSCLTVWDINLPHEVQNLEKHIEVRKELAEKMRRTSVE
T3 sequence (Q5S007 970-2527 G2019S limits assumed): as the sequence (Q5S007 970-2527 limits assumed) above, with G1050S counted along it
T4 sequence (P23458 875-1153 limits assumed): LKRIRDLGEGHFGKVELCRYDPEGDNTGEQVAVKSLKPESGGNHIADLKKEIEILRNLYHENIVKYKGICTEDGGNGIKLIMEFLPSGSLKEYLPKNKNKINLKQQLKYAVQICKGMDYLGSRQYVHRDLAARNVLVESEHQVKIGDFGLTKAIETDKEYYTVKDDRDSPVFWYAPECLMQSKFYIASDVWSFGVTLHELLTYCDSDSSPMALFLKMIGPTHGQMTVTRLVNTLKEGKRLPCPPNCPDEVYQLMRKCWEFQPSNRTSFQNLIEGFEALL

Turning to `NC(=O)c1nn(-c2c(F)cccc2F)cc1Nc1nc2ccccc2[nH]1` [compound 11, 4-((1H-benzo[d]imidazol-2-yl)amino)-1-(2,6-difluorophenyl)-1H-pyrazole-3-carboxamide], the half-inhibitory concentration (IC50) in assay [1], in assay [2], in assay [3] and in assay [4] was 100 to 1000 nM each time.

Consider `NC(=O)c1nn(-c2c(Cl)cccc2Cl)cc1Nc1ccc(-c2nccn2CC(F)(F)F)cc1` [compound 268, 1-(2,6-dichlorophenyl)-4-((4-(1-(2,2,2-trifluoroethyl)-1H-imidazol-2-yl)phenyl)amino)-1H-pyrazole-3-carboxamide], for which the concentration for half-maximal inhibition (IC50) in assay [1] was in the range of 10 to 100 nM; in assay [2], 100 to 1000 nM; in assay [3], 100 to 1000 nM; in assay [4], 10 to 100 nM.

On to `Cc1ccnn1-c1ccc(Nc2cn(-c3c(F)cccc3Cl)nc2C(N)=O)cc1` [compound 233, 1-(2-chloro-6-fluorophenyl)-4-((4-(5-methyl-1H-pyrazol-1-yl)phenyl)amino)-1H-pyrazole-3-carboxamide], for which the IC50 fell in the range of 10 to 100 nM in assay [1], 100 to 1000 nM in assay [2], 100 to 1000 nM in assay [3] and 10 to 100 nM in assay [4].

Take `NC(=O)c1nn(-c2c(Cl)cccc2Cl)cc1Nc1ccc(C(=O)N2CC[C@H](F)C2)nc1` [compound 355, (S)-1-(2,6-dichlorophenyl)-4-((6-(3-fluoropyrrolidine-1-carbonyl)pyridin-3-yl)amino)-1H-pyrazole-3-carboxamide]: the IC50 in assay [1] lay within 10 to 100 nM; in assay [2], 100 to 1000 nM; in assay [3] it was 100 to 1000 nM; in assay [4], 100 to 1000 nM.

Turning to `CC(C)(C)C(=O)c1ccc(Nc2cn(-c3c(F)cccc3Cl)nc2C(N)=O)cc1` [compound 42, 1-(2-chloro-6-fluorophenyl)-4-((4-pivaloylphenyl)amino)-1H-pyrazole-3-carboxamide], the IC50 in assay [1] was < 10 nM; in assay [2], 100 to 1000 nM; in assay [3], 100 to 1000 nM; in assay [4], < 10 nM.

In the case of `CP(C)(=O)c1ccc(Nc2cn(-c3c(F)cccc3F)nc2C(N)=O)cc1` [compound 64, 1-(2,6-difluorophenyl)-4-((4-(dimethylphosphoryl)phenyl)amino)-1H-pyrazole-3-carboxamide], the IC50 in assay [1], in assay [2], in assay [3] and in assay [4] was 100 to 1000 nM throughout.

As for `CC(C)(C)OC(=O)N1CCCC(NC(=O)c2ccc(Nc3cn(-c4c(F)cccc4Cl)nc3C(N)=O)cc2)C1` (stereo not shown) [compound 37, tert-butyl_3-(4-((3-carbamoyl-1-(2-chloro-6-fluorophenyl)-1H-pyrazol-4-yl)amino)benzamido)piperidine-1-carboxylate], the 50% inhibitory concentration (IC50) in assay [1], in assay [2], in assay [3] and in assay [4] was 100 to 1000 nM in each case.

For `Cc1cnccc1-c1ccc(Nc2cn(-c3c(Cl)cccc3Cl)nc2C(N)=O)cc1` [compound 260, 1-(2,6-dichlorophenyl)-4-((4-(3-methylpyridin-4-yl)phenyl)amino)-1H-pyrazole-3-carboxamide], the IC50 in assay [1] was in the range of 100 to 1000 nM; in assay [2] it was 100 to 1000 nM; in assay [3], 100 to 1000 nM; in assay [4], 10 to 100 nM.

Regarding `NC(=O)c1nn(-c2c(Cl)cccc2Cl)cc1Nc1ccc(N2CCCS2(=O)=O)cc1` [compound 272, 1-(2,6-dichlorophenyl)-4-((4-(1,1-dioxidoisothiazolidin-2-yl)phenyl)amino)-1H-pyrazole-3-carboxamide], the concentration for half-maximal inhibition (IC50) in assay [1] was 100 to 1000 nM; in assay [2], 100 to 1000 nM; in assay [3], 100 to 1000 nM; in assay [4] it was 10 to 100 nM.

`NC(=O)c1nn(-c2c(Cl)cccc2Cl)cc1Nc1ccc(-n2cc3c(n2)CCOC3)cc1` [compound 71, 1-(2,6-dichlorophenyl)-4-((4-(6,7-dihydropyrano[4,3-c]pyrazol-2(4H)-yl)phenyl)amino)-1H-pyrazole-3-carboxamide]: the IC50 in assay [1], in assay [2], in assay [3] and in assay [4] was 100 to 1000 nM throughout.

Broadly, the IC50 is the midpoint of a concentration-inhibition curve.
